Test [1] has as its target T1, FHIT (Homo sapiens, UniProt P49789).
T1 construct: GST (N, cleaved yes); made in house; host or cells: E. coli BL21 (DE3)
Put plainly: MST assay of the binding between tanshinone compounds and FHIT. The following applies: Fig. 4B, FHIT preparation not stated. As for the experimental part: Ten million 293 cells overexpressing GFP-tagged FHIT or free GFP were lysed in 0.5 mL M-PER mammalian protein extraction reagent (Thermo Fisher Scientific). Cell lysates were diluted in PBS buffer to a final concentration at which the fluorescent signals of the GFP proteins were suitable for the detection of the Monolith NT.115 instrument (NanoTemper Technologies). A single point screening assay was developed against GFP-FHIT protein to find potential binding molecules from compound libraries (L1021,APExBIO). For binding affinity detection, a 10µL protein sample was mixed with 10µL ligand at various concentrations as indicated. And the purified proteins were labeled by Red- NHS kit in accordance with the manufacturer’s protocol (MO-L011, NanoTemper Technologies). Then the mixture solutions were loaded into NT.115 standard coated capillaries or premium coated capillaries (NanoTemper Technologies), and the MST measurements were performed at 25 °C. The fluorescence signal during the thermophoresis was monitored and the change in fluorescence was analyzed by software. The Kd was calculated by fitting a standard binding curve to the series diluted ligands. And data were analyzed by GraphPad Prism 7.0.

In test [2] the target is T1, FHIT. Put plainly: Fluorescent thin layer enzyme assay with ApppBODIPY (FHIT). It is filed as biochemical. Conditions: 10 nM Fhit, 5 µM ApppBODIPY, TLC; read-out: IC50, FHIT hydrolase activity (TLC assay). As for the experimental part:
Fluorescent substrates ApppBODIPY at 5 µM were incubated with purified Fhit protein 10 nM in reactions at 25 °C containing 20 mM Tris–HCl, pH7.5, 150 mM NaCl, and 5 mM MgCl2. Competitive compounds, when indicated at series concentrations, were mixed with a fluorescent substrate. Reaction samples (0.6µL) were spotted on silica TLC plates (MERCK) at 60–120 s intervals. Plates were air-dried and developed in 2-propanol:NH4OH:1,4-dioxane: H2O (50:35:8:7) as reported before. Developed plates were imaged by fluorescein blot (ChemiDoc, Bio-Rad).

Test [3] concerns HCT116 cells. Kind of test: CCK-8 assay for cell inhibitory rate. The class given is cell-based, human. The following applies: WT HCT116 cells, 2 µM. As for the experimental part:
The CCK-8 (Cell-Counting Kit-8) assay was used to detect the cells’inhibitory rate following the manufacturer’s protocol (APExBIO). Cells were seeded into 96-well plates at the density of 4 × 10^3(cells/well) overnight at 37 °C. After that, the culture medium was removed and the cells were treated with different concentrations of TSA (0, 1, 2, 5, 10 µM) or STS (0, 10, 25, 50, 100 µM) for 24 h, 48 h, 72 h respectively. Then 10 μL CCK-8 reagent was added into each well and incubated for another 2 h, OD450 was measured by a microplate reader (spark, TECAN).
(In general: Formazan colour is commonly taken as a measure of viable cells.)

Test [4] has as its system HCT116 cells. Kind of test: Colony formation assay. The class given is cell-based, human. The following applies: 1 µM, 14 days. As for the experimental part:
ENPP1 hydrolase activity detection assay
ENPP1 protein (4ng/µl) was mixed with series diluted compounds as indicated in assay buffer (50mM Tris-HCl, 2mM CaCl2, 2mM MgCl2, pH9.0) in a final DMSO concentration of 1% in a total volume of 20μL. The mixtures were incubated for 30min at 25°C, then 4µM Ap3A was added. After incubation at 25°C for 10min, ENPP1 should be inactivated at 85°C for 5min.
Then the production of ADP in the reaction system was detected by ADP-Glo reagent (V6930, Promega) according to the manufacturer’s protocol in 384-well. Luminescence was read by spark (TECAN), an integration time of 1 second per well. And the data were analyzed by […]
Fluorescent thin layer enzyme assay for ENPP1
Small molecules, when indicated at series concentrations, were mixed with 2.5µM the fluorescent substrate ApppBODIPY. Then, 10nM purified ENPP1 protein was added to the reaction system at 25°C containing 50mM Tris-HCl pH9.0, 2mM CaCl2, 2mM MgCl2. Reaction samples (0.6µL) were spotted on silica TLC plates (Merck) at 60–120s intervals. Plates were air-dried and developed in 2-propanol:NH4OH:1,4-dioxane: H2O (50:35:8:7) as reported before. Developed plates were imaged by fluorescein blot (ChemiDoc, Bio-rad).
Colony formation assay was performed as described before. Briefly, ~200/well single cells were planted into 6-well plate. […]

A further test concerns WT HCT116 cells. Put plainly: Apoptosis detection by flow cytometry (Annexin V/PI), WT HCT116 cells. The class given is cell-based, human. As for the experimental part:
(§1) HCT116 cells treated with indicated compounds were digested with 0.25% trypsin (Gibco). The cells were harvested by centrifugation at 1000 rpm for 5 min. The trypsinization time should not be too long to prevent false positives. The cells were washed twice with pre-cooled PBS. The cells were resuspended with 1 × annexin-binding buffer and the cell density was adjusted to ~ 1 × 10^6 cells/ml. Then 5µL Alexa Fluor 488 annexin V and 1 µL 100 µg/mL PI working solution (V13241, Invitrogen) was added to each 100 µL cell suspension. The cells were incubated at room temperature in the dark for 15 min. After the incubation, 400 µL 1 × annexin-binding buffer was added to the cells, mixed gently, and kept the samples on ice. Analyze the stained cells by flow cytometry as soon as possible. The V-FITC positive and PI negative cells were recorded as apoptotic cells.

The test system of a further test is FHIT KO HCT116 cells. Kind of test: Apoptosis detection by flow cytometry (Annexin V/PI), FHIT KO HCT116 cells. The class given is cell-based, human. The following applies: for apoptosis: KO cells.
Text: FHIT gene was deleted in HCT116 cells by CRISPR/Cas9 genome editing. A plasmid pL- CRISPR.EFS.GFP (#57,818, Addgene) encoding both the Cas9 protein and the sgRNA was used. The Cas9 sequence is coupled to a P2A site and EGFP. Expression of the Cas9 protein results in simultaneous expression of EGFP, allowing for the selection of positively transfected cells. Two sgRNA toward exon5 and exon6 of the FHIT gene, respectively, were designed by using the optimized CRISPR design online tool (http://crispr.cos.uni-heidelberg.de). The primers sequences of the sgRNA used were shown as below: sgRNA1 for exon5 forward, 5’[…]3’, reverse, 5’[…] GGACAC3’; sgRNA2 for exon6 forward, 5’[…]3’, reverse, 5’[…]3’. Plasmids containing the right insertion were then sequenced by Sangon Biotech Company (Shanghai, China). The two CRISPR/Cas9 plasmids were co-transfected into HCT116 cells as 1:1 using Lipofectamine3000 (Invitrogen). After 48 h, EGFP positive single cell was sorted into 96-well plates and the plates were left in the incubator for 7–14 days or until small colonies could be seen by the naked eye. Genomic DNA of each well was extracted by QuickExtract DNA Extraction Solution (Epicenter, Madison, WI) to do PCR identification. And the PCR products were then Sanger-sequenced to identify clones that would result in frameshifts and truncated protein products. Sequence alignment and genomic PCR primers were shown as below: forward, 5′[…]3′, revers, 5′[…]3′.
as §1, with “The cells were incubated at room temperature in the dark for 15 min. After the incubation, 400 µL 1 × annexin-binding buffer was added to the cells, mixed gently, and kept the samples on ice. Analyze the stained cells by flow cytometry as soon as possible.” left out
Background: Flow cytometry measures light scatter and fluorescence of single cells or particles in a stream.

Test [5] addresses T1, FHIT. Kind of test: FHIT hydrolase activity detection assay (Ap3A, ADP-Glo). It is filed as biochemical. The following applies: 5 nM FHIT, 500 nM Ap3A, ADP production by ADP-Glo. As for the experimental part:
5 nM FHIT protein was mixed with series diluted compounds as indicated in assay buffer (20 mM Tris–HCl, 2 mM DTT, 5 mM MgCl2, pH7.5) in a final DMSO concentration of 1% in a total volume of 20 μL. The mixtures were incubated for 30 min at 25 °C, then 500 nM Ap3A was added. After incubation at 25 °C for 5 min, the production of ADP in the reaction system was detected by ADP-Glo reagent (V6930, Promega) according to the manufacturer’s protocol in 384-well. Luminescence was read by spark (TECAN), an integration time of 1 s per well. And the data were analyzed by GraphPad Prism 7.0.
Background: ADP-Glo turns the ADP formed in a reaction into a luminescent signal.

The target in a further test is T2, FHIT (H96N) (Homo sapiens, UniProt P49789, H96N).
T2 construct: GST (N, cleaved yes); made in house; host or cells: E. coli BL21 (DE3)
T2 sequence (P49789 whole entry H96N): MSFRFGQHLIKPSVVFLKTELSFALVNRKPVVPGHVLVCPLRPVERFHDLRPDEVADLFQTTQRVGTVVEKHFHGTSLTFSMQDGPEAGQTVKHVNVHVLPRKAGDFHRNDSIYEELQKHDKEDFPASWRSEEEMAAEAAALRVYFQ
Kind of test: Fluorescence polarization assay, FHIT H96N-ApppBODIPY binding inhibition. Conditions: 5 µM FHIT (H96N), 1 µM ApppBODIPY. As for the experimental part: The binding of FHIT (H96N) to fluorescein-labeled substrates ApppBODIPY was analyzed by fluorescence polarization assay in 384-well format for dose–response curve studies using spark instrument (TECAN) according to the protocol reported before. And 5 µM FHIT (H96N) protein was incubated with 1 µM fluorescein-labeled substrates in buffer A (25 mM Tris–HCl, pH 7.5, 5 mM MgCl2 and 2 mM DTT) with series diluted inhibitors as indicated. Each sample was allowed to equilibrate in the solution for 30 min. After 30 min, the steady-state fluorescence anisotropy (mP) was measured. A second reading was taken after 10 min, to ensure that the mixture was well-equilibrated and stable. Less than 5% change was observed between 30 and 40 min measurements. The IC50 value was determined by fitting the binding curves using GraphPad Prism 7.0.

SMILES strings stand for the structures.

T1 sequence (P49789 whole entry): as the sequence (P49789 whole entry H96N) above, with N96H counted along it

What is called Kd is the concentration at which binding is half-saturated. Lower therefore signals a tighter complex. As a reminder, the IC50 is the point on the concentration scale where inhibition reaches its midpoint. The molecule `Cc1coc2c1C(=O)C(=O)c1c-2ccc2c1CCCC2(C)C` [TSA, Tanshinone IIA] returned a Kd on FHIT [1] of 112 ± 27.3 nM. On FHIT [2], the IC50 was in the range of 4000 to 6000 nM. For the same molecule, in the test with HCT116 cells [3], the “growth of HCT116 cells (CCK8)” value is on record as “significantly inhibits the growth”. The “colony formation of HCT116 cells” value with HCT116 cells [4] is on record as “clearly abolished the colony formation”. The apoptosis rate turned out to be 13.5% in the test with WT HCT116 cells (5 µM, 24 h) and 4.9% in the test on FHIT KO HCT116 cells (FHIT KO cells, 5 µM, 24 h).

On to `Cc1coc2c1C(=O)C(=O)c1c-2ccc2c(C)cccc12` [TanI, tanshinone I], for which binding on FHIT [1] was put at a Kd of 466 ± 60 nM. At FHIT [2], the IC50 fell in the range of 4000 to 6000 nM. In addition, the apoptosis with WT HCT116 cells (10 µM) came to 31.66%; with FHIT KO HCT116 cells (10 µM), 12.7%.

On FHIT [1], `C[C@H]1COC2=C1C(=O)C(=O)c1c2ccc2c1CCCC2(C)C` [CST, Cryptotanshinone] registered a Kd of 123 ± 31.7 nM. For the same molecule, the concentration for half-maximal inhibition (IC50) on FHIT [2] fell in the range of 4000 to 6000 nM.

Take `Cc1ccc(C(=O)Nc2ccc(S(=O)(=O)O)c3cc(S(=O)(=O)O)cc(S(=O)(=O)O)c23)cc1NC(=O)c1cccc(NC(=O)Nc2cccc(C(=O)Nc3cc(C(=O)Nc4ccc(S(=O)(=O)O)c5cc(S(=O)(=O)O)cc(S(=O)(=O)O)c45)ccc3C)c2)c1` [suramin]: the results for the IC50 at FHIT [5] and at FHIT (H96N) were 260 ± 80 nM and 2600 ± 44 nM, respectively.

On to `CC[C@@]1(O)C(=O)OCc2c1cc1n(c2=O)Cc2cc3ccccc3nc2-1` [CPT, camptothecin], for which the apoptosis with WT HCT116 cells (1 µM) is on record as 24.9%; in the test with FHIT KO HCT116 cells (1 µM), 5.3%.

(Values after article PMC8190080, “Tanshinones induce tumor cell apoptosis via directly targeting FHIT” (Scientific Reports, 2021).)
